This is an account of results in patent US6828345B2, “O-substituted 6-methyltramadol derivatives” (Gruenenthal GmbH, priority 2000, dated 2004).

Assay [1] concerns tail-flick pain latency in mice. In words: Tail-flick (focussed beam) test on mice. Type of assay: in vivo, NMR mice. The settings on record: for ED50: Mus musculus. An excerpt: The analgesic effectiveness of the compounds according to the invention was investigated by the focussed beam (tail-flick) test in mice according to the method developed by D'Amour and Smith (J. Pharmaceutical. Exp. Ther. 72, 74 79 (1941)). NMR mice weighing between 20 and 24 g were used for this purpose. The animals were placed individually in special test cages and the base of the tail was subjected to a focused beam of light from an electric lamp (tail-flick type 55/12/10.fl, Labtec, Dr Hess). The lamp intensity was adjusted so that the time from when the lamp was switched on to the sudden withdrawal of the tail (pain latency) was 3 to 5 seconds in the case of untreated animals. Before administration of a compound according to the invention the animals were pre-tested twice within 5 minutes and the mean value of these measurements was calculated as a pre-test mean value. The pain measurements were carried out 20, 40 and 60 minutes after intravenous administration. The analgesic action was calculated as the increase in the pain latency (% MPE) according to the following formula: […]
Here T0 is the latency time before application of the substance and T1 the latency time after application of the substance, and T2 is the maximum exposure time (12 sec).
In order to determine the dose dependence the respective compound according to the invention was applied in 3 to 5 logarithmically increasing doses that included in each case the threshold dose and the maximal effect dose, and the ED50 values were determined by means of regression analysis. The ED50 calculation was carried out at the effect maximum 20 minutes after intravenous administration of the substance.

Assay [2] relates to phenylquinone-induced writhing reaction in mice. In words: Phenylquinone-induced writhing test in mice. Type of assay: in vivo, Male NMRI mice. The note with it: orally, phenylquinone i.p. 30 minutes after oral administration, writhing counted 5-20 minutes after phenylquinone; for ED50: Mus musculus, read-out: ED50 writhing inhibition. Here is the method: The analgesic effectiveness of the compounds according to the invention was investigated in mice using the phenylquinone-induced writhing test as modified by I. C. Hendershot, J. Forsaith in J. Pharmacol. Exptl. Ther. 125, 237 (1959). Male NMRI mice weighing between 25 and 30 g were used for this purpose. Groups of 10 animals per substance dose received intraperitoneally 30 minutes after oral administration of a compound according to the invention, 0.3 ml per mouse of a 0.02% aqueous phenylquinone solution (phenylbenzoquinone, from Sigma, Deisenhofen; solution prepared by addition of 5% ethanol and storage in a water bath at 45° C.). The animals were then placed individually in observation cages. The number of pain-induced stretching movements (writhing reaction=contortion of the body accompanied by stretching of the rear extremities) was counted using a push-button counter 5-20 minutes after administration of the phenylquinone. The ED50 values (effective dose with 50% inhibition of the writhing reaction) were calculated with 95% level of confidence by means of regression analysis (evaluation program from Martens EDV-Service, Ekental) from the dose-dependent reduction in the writhing reaction compared to mice investigated in parallel to which only phenylquinone had been administered.

The mark [3] stands for this setting: iv, 20 min, i.v., effect maximum 20 minutes after intravenous administration.
Where [4] appears, read: i.v., effect maximum 20 minutes after intravenous administration.

In assay [1] (setting [3]), `COc1cccc(C2(O)C(C)CCCC2CN(C)C)c1` (racemic) [Example 1, 2-dimethylaminomethyl-1-(3-methoxyphenyl)-6-methylcyclohexanol] displayed an ED50 of 5.6 mg/kg.
On to `CCOc1cccc(C2(O)C(C)CCCC2CN(C)C)c1` (racemic) [Example 2, 2-dimethylaminomethyl-1-(3-ethoxyphenyl)-6-methylcyclohexanol], for which, in assay [1] (setting [3]), it took a dose of 11.9 mg/kg to reach the 50% effect level (ED50).
Regarding `CC1CCCC(CN(C)C)C1(O)c1cccc(O)c1` (racemic) [Example 3, 3-(2-dimethylaminomethyl-1-hydroxy-6-methyl-cyclohexyl)phenol], the ED50 writhing inhibition in assay [2] came out at 2.09 mg/kg. Also, in assay [1] (setting [3]), the 50% effect level (ED50) was put at a dose of 2.15 mg/kg.
In the case of `C=CCOc1cccc(C2(O)C(C)CCCC2CN(C)C)c1` (racemic) [Example 4, 1-(3-allyloxyphenyl)-2-dimethylaminomethyl-6-methylcyclohexanol], the ED50 was 9.38 mg/kg in assay [2] and 20.2 mg/kg in assay [1] (setting [3]).
As for `CC1CCCC(CN(C)C)C1(O)c1cccc(O)c1` (racemic) [Example 8, 3-(2-dimethylaminomethyl-1-hydroxy-6-methylcyclohexyl)-phenol], in assay [2], the ED50 writhing inhibition amounted to 14.0 mg/kg.
For `COc1cccc(C2(O)C(C)CCCC2CN(C)C)c1` (stereo not drawn) [Example 5, 2-dimethylaminomethyl-1-(3-methoxyphenyl)-6-methylcyclohexanol], the ED50 in assay [2] was determined as 11 mg/kg; in assay [1] (po, orally (cell note)), 42.9 mg/kg.
In the case of `COc1cccc(C2(O)C(C)CCCC2CN(C)C)c1` (stereo not drawn) [Example 6, 2-dimethylaminomethyl-1-(3-methoxyphenyl)-6-methylcyclohexanol], in assay [2], the ED50 writhing inhibition is recorded as 6.58 mg/kg. In assay [1] (setting [3]), the ED50 was determined as 7.73 mg/kg.
For the compound `CC1CCCC(CN(C)C)C1(O)c1cccc(O)c1` (stereo not drawn) [Example 9, 3-(2-dimethylaminomethyl-1-hydroxy-6-methylcyclohexyl)-phenol], the ED50 writhing inhibition in assay [2] is reported as 19.8 mg/kg. The compound further displayed an ED50 tail-flick in assay [1] (setting [4]) of 14.7 mg/kg.
`CC1CCCC(CN(C)C)C1(O)c1cccc(O)c1` (stereo not drawn) [Example 10, 3-(2-dimethylaminomethyl-1-hydroxy-6-methylcyclohexyl)-phenol] showed an ED50 writhing inhibition in assay [2] of 5.3 mg/kg. This compound also gave an ED50 tail-flick in assay [1] (setting [4]) of 0.91 mg/kg.
Regarding `CCOc1cccc(C2(O)C(C)CCCC2CN(C)C)c1` (stereo not drawn) [Example 11, 2-dimethylaminomethyl-1-(3-ethoxyphenyl)-6-methylcyclohexanol], the ED50 writhing inhibition in assay [2] turned out to be 21.6 mg/kg.
Compound `CCOc1cccc(C2(O)C(C)CCCC2CN(C)C)c1` (stereo not drawn) [Example 12, 2-dimethylaminomethyl-1-(3-ethoxyphenyl)-6-methylcyclohexanol] returned an ED50 writhing inhibition in assay [2] of 4.39 mg/kg. The same compound gave an ED50 in assay [1] (setting [3]) of 13.4 mg/kg.
As for `CC1CCCC(CN(C)C)C1(O)c1cccc(OC2CCCC2)c1` (stereo not drawn) [Example 14, 1-(3-cyclopentyloxyphenyl)-2-dimethylaminomethyl-6-methylcyclohexanol], the ED50 was 26.2 mg/kg in assay [2] and 20 mg/kg in assay [1] (setting [3]).
The matching figures for `CC1CCCC(CN(C)C)C1(O)c1cccc(OCC2CCC2)c1` (stereo not drawn) [Example 16, 1-(3-cyclobutylmethoxyphenyl)-2-dimethylaminomethyl-6-methylcyclohexanol]: 32.8 mg/kg and 21.5 mg/kg.
Turning to `C#COc1cccc(C2(O)C(C)CCCC2CN(C)C)c1` (stereo not drawn) [Example 19, 2-dimethylaminomethyl-1-(3-ethynyloxyphenyl)-6-methylcyclohexanol], the ED50 in assay [1] (setting [3]) turned out to be 14.7 mg/kg.
`CC1CCCC(CN(C)C)C1(O)c1cccc(OC2CCC2)c1` (stereo not drawn) [Example 21, 1-(3-cyclobutoxyphenyl)-2-dimethylaminomethyl-6-methylcyclohexanol] gave an ED50 in assay [1] (setting [3]) of 30 mg/kg.
